Where two headings read alike, the source gives them in different places. Each block holds one molecule with its values, some of them ahead of it.
Tests used:
[1] = Measurement of logPow (OECD 107, n-octanol/water, shake flask method); format: physicochemical
Description: In this case, the “drug which is liquid at room temperature or around room temperature” means a drug which is liquid at a temperature where the adhesive pharmaceutical preparation after its production is generally preserved, namely any temperature within a temperature range of from 1 to 40° C. Within such a temperature range, the drug has such a degree of fluidity that it can cause bleeding. Viscosity of the drug is measured using a type E viscometer while keeping the drug at a predetermined temperature. According to the invention, when the viscosity of a drug at a predetermined temperature is from 0.05 to 100,000 mPa·s, the drug is liquid at the predetermined temperature. In addition, the “logPow” is an index which expresses hydrophilic property or hydrophobicity of the drug, and is a value measured on individual drugs in accordance with the method described in “OECD GUIDELINE FOR THE TESTING OF CHEMICALS 107, Adopted by the Council on 27 Jul. 1995, Partition Coefficient (n-octanol/water), Shake Flask Method)”, and the base of logarithm of logPow is 10.
The “logPow” is obtained by a calculation after partitioning a drug into water layer and n-octanol layer and determining the drug concentration of each layer by an appropriate method, in accordance with the method described in the above-mentioned guideline. The quantitative determination of drugs is not particularly limited so long as it is a method in which its determinability was verified, for example, by verifying linearity of its calibration curve, but in general, an absorptiometry, a gas chromatography or a high performance liquid chromatography is used. […] In addition, when the drug is a dissociating substance, the logPow is measured while suppressing its dissociation in accordance with the guideline. That is, the logPow is measured using a buffer of appropriate pH as the water layer under a condition of a free acid or free base. When the drug is an acidic drug, a buffer having a pH value which is lower by a factor of 1 than the pKa value of the drug is used. When the drug is a basic drug, a buffer having a pH value which is higher by a factor of 1 than the pKa value of the drug is used.
In this connection, although the measurement range of logPow is generally set from −2 to 4 according to this guideline, the measurement range of logPow can be set to −2 to 5 by increasing the determination sensitivity by making use of high sensitivity analytical methods such as a high performance liquid chromatography.
LogPow was measured in accordance with the “OECD GUIDELINE FOR THE TESTING OF CHEMICALS 107, Adopted by the Council on 27th Jul. 1995, Partition Coefficient (n-Octanol/water), Shake Flask Method)”. Water layers, determination methods and results of the LogPow measurement at the time of the measurement of LogPow are shown in Table 3.

[2] = Measurement of viscosity at 40° C. (type E viscometer); format: physicochemical
Description: Viscosity of the drug is measured using a type E viscometer while keeping the drug at a predetermined temperature. According to the invention, when the viscosity of a drug at a predetermined temperature is from 0.05 to 100,000 mPa·s, the drug is liquid at the predetermined temperature. In addition, the “logPow” is an index which expresses hydrophilic property or hydrophobicity of the drug, and is a value measured on individual drugs in accordance with the method described in “OECD GUIDELINE FOR THE TESTING OF CHEMICALS 107, Adopted by the Council on 27 Jul. 1995, Partition Coefficient (n-octanol/water), Shake Flask Method)”, and the base of logarithm of logPow is 10.
In addition, the viscosity of a drug at 40° C. is measured using a type E viscometer while heating the drug at 40° C.
5. Measurement of Viscosity at 40° C.
Viscosity of drugs at 40° C. was measured using a type E viscometer (type E viscometer mfd. By Tokyo Keiki, VISCONIC Type ED).

[3] = water layer pH 10 buffer, HPLC method

Compound: CC=CC(=O)N(CC)c1ccccc1C (mixture of isomers) [Crotamiton, crotamiton]
logP ([1]; n-octanol/water, water layer distilled water, HPLC method): 3.1 | LogPow ([1]; water layer distilled water, HPLC method): Crotamiton (3.1) | LogPow ([1]; water layer distilled water, HPLC method, listed as crotamiton): 3.1 | Viscosity [2]: 16 mPa·s

Compound: COc1ccc(CCN(C)CCCC(C#N)(c2cc(OC)c(OC)c(OC)c2)C(C)C)cc1OC (stereo not shown) [Gallopamil free base, gallopamil free base]
LogPow [1, 3]: 4.8 | Viscosity [2]: 4500 mPa·s | Viscosity ([2]; listed as gallopamil): 4,500 mPa·s

Compound: OCC(O)CO [Glycerol]
LogPow ([1]; water layer distilled water, titration method): −1.1

Next, values leading:

logD ([1]; n-octanol/water, water layer pH 10 buffer, HPLC method): 2.4 | LogPow [1, 3]: base (2.4) | LogPow ([1]; water layer pH 10 buffer, HPLC method, listed as emedastine free base): 2.4 | Viscosity [2]: 280 mPa·s
Compound: CCOCCn1c(N2CCCN(C)CC2)nc2ccccc21 [Emedastine free base, emedastine free base]

logD ([1]; n-octanol/water, water layer pH 9.2 buffer, HPLC method): > 5 | LogPow ([1]; water layer pH 9.2 buffer, HPLC method): base (>5.0) | LogPow ([1]; water layer pH 9.2 buffer, HPLC method, listed as terbinafine): > 5.0 | Viscosity [2]: 280 mPa·s
Compound: CN(C/C=C/C#CC(C)(C)C)Cc1cccc2ccccc12 [Terbinafine free base]

Reference: patent US20090169603A1, “Adhesive Pharmaceutical Preparation” (NITTO DENKO CORPORATION, priority 2005, published 2009)
